Measured values published in patent US20200016159A1, “N3-CYCLICALLY SUBSTITUTED THIENOURACILS AND USE THEREOF” (Bayer Aktiengesellschaft, priority 2016, published 2020).

Columns and labels:
[1] = test system: IL-6 release by LL29 fibroblasts; experiment: NECA-induced IL-6 release by LL29 fibroblasts; type: cell-based; details: Homo sapiens, Fibroblast; LL29 cells stimulated with NECA (10 μM), 24 hours, IL-6 ELISA of supernatant
Procedure: Stimulation of fibroblasts with adenosine or the adenosine analog 5′-N-ethylcarboxamidoadenosine (NECA) leads to release of the pro-inflammatory and pro-fibrotic cytokine IL-6 which can be prevented by inhibition of the A2b receptor.
Accordingly, confluent cells of the human fibroblast cell line LL29 were treated with the test substances and stimulated with NECA (10 μM). After an incubation time of 24 hours, the cell supernatant is removed and human IL-6 in the cell supernatant is determined by ELISA (Quantikine® IL6 ELISA, R&D Systems, Minneapolis, USA).
(§1) Table 3 below lists the IC50 values obtained in this way for inhibition of IL-6 release for representative working examples (in some cases as means of a plurality of independent individual determinations and rounded to two significant figures; it may also be the case here that various independent preparations of the respective working example have been used): […]

[2] = target: T1, human adenosine A1 receptor (Homo sapiens, UniProt P30542); experiment: Adenosine receptor radioligand binding assay, A1 receptor ([3H]-DPCPX, CHO membranes); details: membrane preparations of CHO cells, radioligand [3H]-DPCPX
T1 construct: expressed in transfected cells; host or cells: CHO
T1 sequence (P30542 1-326): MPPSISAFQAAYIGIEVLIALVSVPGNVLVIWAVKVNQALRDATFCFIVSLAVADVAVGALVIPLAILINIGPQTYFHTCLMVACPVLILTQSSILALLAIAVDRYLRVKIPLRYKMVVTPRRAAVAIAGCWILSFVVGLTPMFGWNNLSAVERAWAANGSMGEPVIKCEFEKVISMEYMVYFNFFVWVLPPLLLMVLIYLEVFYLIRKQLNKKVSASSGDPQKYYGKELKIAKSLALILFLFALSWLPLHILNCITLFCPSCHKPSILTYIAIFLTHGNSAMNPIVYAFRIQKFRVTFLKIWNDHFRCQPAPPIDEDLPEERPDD
Procedure: (§2) The binding properties of the test compounds on adenosine receptors were determined in binding studies with radioligands. For this purpose, membrane preparations of the human adenosine receptor subtypes were produced from cell lines having recombinant receptor expression (CHO cells for the A1 receptor, HEK293 cells for the A2a, A2b and A3 receptors). The following radioligands were used in the experiments: [^3H]-DPCPX for the A1 receptor, [^3H]-CGS 21680 for the A2a receptor, [^3H]-CPX for the A2b receptor and [^125I]-AB-MECA for the A3 receptor. The test substances were each tested in 8 different concentrations and 2 repeat tests per concentration. The displacement of the particular radioligand by the test compound was expressed as percentage inhibition of the specific binding of the controls.
(§3) The IC50 values (concentration which brings about half-maximum inhibition of the specific binding of the controls) and the Hill coefficients (nH) were determined by a non-linear regression analysis, using the competition curves obtained from the mean values of the repeat tests and conducting a curve fit according to the Hill equation:
(§4) (Y=specific binding; A=left-hand asymptote of the curve; D=right-hand asymptote of the curve; C=substance concentration; C50=IC50; nH=rise factor).
(§5) The inhibition constant (Ki) was calculated by the Cheng-Prusoff equation:
(§6) (L=concentration of the radioligand in the assay; KD=receptor affinity of the radioligand for the receptor, determined with a Scatchard plot).
(§7) [Literature: A1 receptor: Townsend-Nicholson, A. und Schofield, P. R., J. Biol. Chem. 269: 2373-2376 (1994); A2a receptor: Luthin, D. R. et al., Mol. Pharmacol. 47: 307-313 (1995); A2b receptor: Stehle, J. H. et al., Mol. Endocrinol. 6: 384-393 (1992) and Linden et al., Mol. Pharmacol. 56: 705-713 (1999); A3 receptor: Salvatore, C. A. et al., Proc. Natl. Acad. Sci. U.S.A. 90: 10365-10369 (1993) and Jacobson, K. A. et al., Neuropharmacology 36: 1157-1165 (1997)].
as §1, with “2” for “3”, “K1” for “IC50”, “thus determined from these binding assays” for “obtained in this way for inhibition of IL-6 release”

[3] = target: T2, human adenosine A2b receptor (Homo sapiens, UniProt P29275); experiment: Cellular in vitro reporter gene test for A2b receptor activity (antagonism of NECA); type: cell-based; set-up: expressed in transfected cells; host or cells: CHO-K1 (Chinese hamster ovary) with CRE-luciferase reporter; details: recombinant CHO-K1 cells, CRE-luciferase reporter, co-incubation with EC50 concentration of NECA, 3 hours
T2 sequence (P29275 1-332): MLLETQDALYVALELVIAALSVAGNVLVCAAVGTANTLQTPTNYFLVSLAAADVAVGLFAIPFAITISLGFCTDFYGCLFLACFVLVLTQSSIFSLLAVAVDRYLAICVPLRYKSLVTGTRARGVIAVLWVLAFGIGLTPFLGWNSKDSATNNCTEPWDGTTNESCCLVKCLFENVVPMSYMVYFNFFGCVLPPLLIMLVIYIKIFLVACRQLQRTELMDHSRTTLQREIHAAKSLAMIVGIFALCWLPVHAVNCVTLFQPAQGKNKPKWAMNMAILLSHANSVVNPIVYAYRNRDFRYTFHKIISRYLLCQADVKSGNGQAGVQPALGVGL
Summary of the method: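 Antagonism measured as block of NECA-induced, cAMP/CRE-dependent luciferase expression in recombinant A2b CHO-K1 cells. NECA used at the EC50 set in a pre-experiment on each test day; luminescence detected after 3 h. Reported as IC50, partly averaged and rounded to two significant figures.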

[4] = target: T2, human adenosine A2b receptor; experiment: Adenosine receptor radioligand binding assay, A2b receptor ([3H]-CPX, HEK293 membranes); set-up: expressed in transfected cells; details: membrane preparations of HEK293 cells, radioligand [3H]-CPX
Procedure: as §2, §3, §4, §5, §6, §7
as §1, with “2” for “3”, “K1” for “IC50”, “thus determined from these binding assays” for “obtained in this way for inhibition of IL-6 release”

[5] = target: T3, human adenosine A2a receptor (Homo sapiens, UniProt P29274); experiment: Adenosine receptor radioligand binding assay, A2a receptor ([3H]-CGS 21680, HEK293 membranes); details: membrane preparations of HEK293 cells, radioligand [3H]-CGS 21680
T3 construct: expressed in transfected cells; host or cells: HEK293
Procedure: as §2, §3, §4, §5, §6, §7
as §1, with “2” for “3”, “K1” for “IC50”, “thus determined from these binding assays” for “obtained in this way for inhibition of IL-6 release”

[6] = target: T4, human adenosine A3 receptor (Homo sapiens, UniProt P0DMS8); experiment: Adenosine receptor radioligand binding assay, A3 receptor ([125I]-AB-MECA, HEK293 membranes); details: membrane preparations of HEK293 cells, radioligand [125I]-AB-MECA
T4 construct: expressed in transfected cells; host or cells: HEK293
T4 sequence (P0DMS8 1-318): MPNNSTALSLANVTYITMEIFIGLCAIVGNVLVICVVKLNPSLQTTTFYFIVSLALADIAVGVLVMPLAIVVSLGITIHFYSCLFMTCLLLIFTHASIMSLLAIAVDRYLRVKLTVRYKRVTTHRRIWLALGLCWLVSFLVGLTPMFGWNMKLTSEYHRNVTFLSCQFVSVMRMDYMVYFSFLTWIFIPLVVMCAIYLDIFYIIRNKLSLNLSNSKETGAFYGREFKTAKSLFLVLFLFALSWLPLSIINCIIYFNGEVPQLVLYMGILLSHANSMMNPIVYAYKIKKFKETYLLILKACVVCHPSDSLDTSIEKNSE
Procedure: as §2, §3, §4, §5, §6, §7
as §1, with “2” for “3”, “K1” for “IC50”, “thus determined from these binding assays” for “obtained in this way for inhibition of IL-6 release”

[7] = test system: bladder tumours and breast tumours; details: animal models of bladder tumours and breast tumours; cited from earlier work
colon cancer cell lines = details: inhibition of the A2b receptor-mediated adenosine signalling pathway; cited from earlier work
melanoma animal models = details: cited from earlier work
[8] = test system: prostate cancer cell lines; details: cited from earlier work

T3 sequence (P29274 whole entry): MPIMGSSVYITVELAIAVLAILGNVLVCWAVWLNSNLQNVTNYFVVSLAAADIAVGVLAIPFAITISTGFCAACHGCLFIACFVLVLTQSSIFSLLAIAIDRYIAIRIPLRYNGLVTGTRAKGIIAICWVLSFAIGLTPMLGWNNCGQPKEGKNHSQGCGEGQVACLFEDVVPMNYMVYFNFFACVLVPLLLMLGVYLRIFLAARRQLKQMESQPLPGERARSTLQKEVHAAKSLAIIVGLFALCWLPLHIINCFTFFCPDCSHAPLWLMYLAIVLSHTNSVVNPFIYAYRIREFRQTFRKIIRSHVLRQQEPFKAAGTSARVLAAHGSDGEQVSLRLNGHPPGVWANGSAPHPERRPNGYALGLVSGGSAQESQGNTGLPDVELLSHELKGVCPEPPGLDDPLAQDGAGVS

Ki [2] [nM]	IC50 [3] [nM]	Ki [4] [nM]	Ki [5] [nM]	Ki [6] [nM]	Compound	IC50 [1] [nM]	other results
3400	3.8	3.7	480	3700	COCCn1c(=O)n(C2CC2C)c(=O)c2c(C)c(CN3CCNC3=O)sc21 (single isomer, unassigned) [Example 96, 1-(2-Methoxyethyl)-5-methyl-3-(2-methylcyclopropyl)-6-[(2-oxoimidazolidin-1-yl)methyl]thieno[2,3-d]pyrimidine-2,4(1H,3H)-dione]	4.9	–
> 10000	15	5.7	4800	> 10000	COCCn1c(=O)n(C2(C)CC2)c(=O)c2c(C)c(CN3CCNC3=O)sc21 [Example 70, 1-(2-Methoxyethyl)-5-methyl-3-(1-methylcyclopropyl)-6-[(2-oxoimidazolidin-1-yl)methyl]thieno[2,3-d]pyrimidine-2,4(1H,3H)-dione]	–	–
–	8.5	–	–	–	Cc1c(Cn2nc[nH]c2=O)sc2c1c(=O)n(C1(C)CC1)c(=O)n2CCOC(F)(F)F [Example 76, 5-Methyl-3-(1-methylcyclopropyl)-6-[(5-oxo-4,5-dihydro-1H-1,2,4-triazol-1-yl)methyl]-1-[2-(trifluormethoxy)ethyl]thieno[2,3-d]pyrimidine-2,4(1H,3H)-dione]	11	–
3400	3.8	3.7	480	3700	COCCn1c(=O)n([C@H]2C[C@@H]2C)c(=O)c2c(C)c(CN3CCNC3=O)sc21 [Example 315, 1-(2-Methoxyethyl)-5-methyl-3-[(1S,2S)-2-methylcyclopropyl]-6-[(2-oxoimidazolidin-1-yl)methyl]thieno[2,3-d]pyrimidine-2,4(1H,3H)-dione]	4.9	–

Continued, compound first:

Compound	Ki [2] [nM]	IC50 [3] [nM]	Ki [4] [nM]	Ki [5] [nM]	Ki [6] [nM]	IC50 [1] [nM]	other results
CCCn1c(=O)n(C2CC2)c(=O)c2[nH]c(-c3ccc(N(CC)C(=O)c4cccnc4)nc3)nc21 [ATL801]	–	–	–	–	–	–	interferon γ level [7]: significant increase; metastasis [7]: distinct reduction in metastasis; number of tumour antigen-presenting dendritic cells [7]: increase; tumour growth [7]: slowing of tumour growth
Cc1c(CN2CCNC2=O)sc2c1c(=O)n(C1CC1)c(=O)n2CCCF [Example 5, 3-Cyclopropyl-1-(3-fluoropropyl)-5-methyl-6-[(2-oxoimidazolidin-1-yl)methyl]thieno[2,3-d]pyrimidine-2,4(1H,3H)-dione]	–	12	–	–	–	21	–
Cc1c(Cn2nc[nH]c2=O)sc2c1c(=O)n(C1CC1)c(=O)n2CCC(F)(F)F [Example 15, 3-Cyclopropyl-5-methyl-6-[(5-oxo-4,5-dihydro-1H-1,2,4-triazol-1-yl)methyl]-1-(3,3,3-trifluoropropyl)thieno[2,3-d]pyrimidine-2,4(1H,3H)-dione]	8000	14	3.6	3000	> 10000	–	–
COCCn1c(=O)n(C2CC2)c(=O)c2c(C)c(CN3CCNC3=NC(=O)OC)sc21 [Example 26, Methyl [1-{[3-cyclopropyl-1-(2-methoxyethyl)-5-methyl-2,4-dioxo-1,2,3,4-tetrahydrothieno[2,3-d]pyrimidin-6-yl]methyl}imidazolidin-2-ylidene]carbamate]	–	8.3	–	–	–	12	–
Cc1c(Cn2nc[nH]c2=O)sc2c1c(=O)n(C1CC1)c(=O)n2CCOC(F)(F)F [Example 36, 3-Cyclopropyl-5-methyl-6-[(5-oxo-4,5-dihydro-1H-1,2,4-triazol-1-yl)methyl]-1-[2-(trifluoromethoxy)ethyl]thieno[2,3-d]pyrimidine-2,4(1H,3H)-dione]	2600	4.4	2.6	950	> 50000	6.1	melting point: 199 °C
CCCn1c(=O)c2[nH]c(-c3ccc(OCC(=O)Nc4ccc(C#N)cc4)cc3)nc2n(CCC)c1=O [MRS1754]	–	–	–	–	–	–	growth of colon cancer cell lines (colon cancer cell lines): reduced growth
CCCn1c(=O)[nH]c2nc(-c3ccc(S(=O)(=O)N4CCN(c5ccc(Cl)cc5)CC4)cc3)[nH]c2c1=O [PSB603]	–	–	–	–	–	–	tumour growth and metastasis (melanoma animal models): reduction in tumour growth and metastasis; growth of several prostate cancer cell lines [8]: reduces the growth
